The source of these data is patent publication US6951639B2, “1,4,7,10-tetraazacyclododecane butyltriols, processes for their production and pharmaceutical agents containing them” (Schering AG, priority 1990, dated 2005).

SMILES strings stand for the structures.

Data set [1] relates to mice. In words: Acute toxicity determination (LD50), intravenous administration in a caudal vein. The data set is classed as in vivo. Particulars: mice 18-22 g, 2 ml/min, 7 days observation, death as criterion. The method, then: 1. Acute Toxicity Determination (LD50)
In an individual cage (Rhema/Hofheim company) the contrast medium was administered to mice (weight: 18-22 g) approximately at body temperature in a caudal vein at a rate of 2 ml/min. […]
The contrast media were administered to 3 mice each in 3 doses at variable volumes and constant concentration. The allocation of the animals to the individual doses and the injection sequence of the doses took place by chance.
The observation period of the animals extended over 7 days per injection. The death of the animals was used as the criterion of the effectiveness.
(§1) The statistical evaluation of all study results took place with the probit analysis.

In data set [2] the test system is rats. In words: Intracisternal administration (ED50), neural compatibility. The data set is classed as in vivo, rats (Wistar-Han-Schering, SPF). Conditions: once intracisternally, 0.08 ml/animal, posture anomalies, spasms and death as criteria. The method, then: 2. Intracisternal Administration (ED50)
The test substance was administered under light ether anesthesia to an equal number of female and male rats (130-170 g, Wistar-Han-Schering, SPF) once intracisternally by suboccipital puncture in constant volumes (0.08 ml/animal) in different concentrations (3 doses per 10 animals per substance). A volume sampling check (Ringer's solution) followed the study. Posture anomalies, spasms and death of the animals were evaluated as action criteria.
as §1

Data set [3] has as its system cerebral infarction in the rat. Description: NMR-diagnostic in vivo examination: demonstration of a cerebral infarction in the rat. Conditions: image 1 minute after administration. Also on record: species or system Wistar rat. The method, then:
The experimental animal was a female Wistar rat weighing 200 g. For the induction of the cerebral infarction, the animal was first anesthetized. After intravenous injection of Bengal red with a dose of 20 mg/kg, an area of the brain about 0.7 cm in diameter near the bregma point was irradiated through the cranium with light of wavelength 548 nm (this corresponds to the maximum absorption of Bengal red), by which, because of the formation of singlet oxygen by a chain of various reactions, there results the aggregation of platelets and thus an infarction in the irradiated region.
The imaging took place in an MRI experimental device of the General Electric company (field strength, 2 teslas). It was performed with a spin echo sequence (TR=400 msec, Ts=20 msec). The layer thickness was 3 mm, and 4 averagings were performed respectively.
An axial sectional plane image without contrast medium where the cranium points downward was taken. The infraction area is indicated only quite weakly by a lower signal intensity in comparison to the healthy tissue. […] The same animal was administered another dose after about 20 minutes, this time in the amount of 0.3 mmol of Gd/kg.

For data set [4] the following is noted: reference value for monomer contrast media; cited from earlier work.

`O=C([O-])CN1CCN(CC(=O)[O-])CCN(CC(O)C(O)CO)CCN(CC(=O)[O-])CC1.[Gd+3]` (stereo not shown) [Example 1, Gadolinium Complex of 10-(2,3,4-trihydroxybutyl)-1,4,7-triscarboxymethyl-1,4,7,10-tetraazacyclododecane]: the “Acute i.v. LD50” value in data set [1] is on record as 35 mmol/kg. The “Neural ED50” value in data set [2] is 27 µmol/kg.
As for `O=C([O-])CN1CCN(CC(=O)[O-])CCN(C(CO)C(O)CO)CCN(CC(=O)[O-])CC1.[Gd+3]` (stereo not shown) [Example 2, Gadolinium Complex of 10-(1-hydroxymethyl-2,3-dihydroxypropyl)-1,4,7-triscarboxymethyl-1,4,7,10-tetraazacyclododecane], in data set [1], the “Acute i.v. LD50” value was 30 mmol/kg. For the same compound, the “Neural ED50” value in data set [2] worked out at 29 µmol/kg. For the same compound, the “signal enhancement in the area of infarction (MRI)” value in data set [3] (0.1 mmol of Gd/kg, 2 teslas, spin echo) is listed as “clear enhancement”; in data set [3] (further dose of 0.3 mmol of Gd/kg after about 20 minutes), “enhancement substantially stronger than after the smaller dose”.
Take `OC[C@@H](O)[C@@H](O)[C@H](O)[C@H](O)CO` [mannitol]: the intravenous compatibility in data set [4] is 30 to 40 mmol/kg.
